The nature of assay [1]: Luminescence Cell-Based Dose Confirmation HTS to Identify Inhibitors of Platelet Dense Granule Release. [Related pubchem assays: 1663 (Primary HTS), 1678 (Summary of Project)]. Format: functional.
Assay [2] has as its target Luciferin 4-monooxygenase (Photinus pyralis, UniProt P08659). Nature of the assay: firefly luciferase enzyme inhibitors, dose response, biochemical, luminescence (AID 1891).
Assay [3] in a line: Luminescence Cell-Based Dose Response Follow up to Identify Inhibitors of Platelet Dense Granule Release. [Related pubchem assays (depositor defined):AID1663, AID1678, AID1889, AID2519]. Format: functional.
Assay [4] can be described thus: inhibitors of SFLLRN-triggered platelet P-selectin exposure, dose response, cell-based, fluorescence, flow cytometry, human platelets (AID 2511). The assay is classed as functional.
Assay [5] has as its system HEK293. Nature of the assay: cells. The assay is classed as functional, cell-based. Conditions: Homo sapiens.
Assay [6] addresses Nuclear receptor subfamily 0 group B member 1 (Homo sapiens, UniProt P51843). Nature of the assay: Luminescence-based cell-based high throughput dose response assay for inhibitors of the orphan nuclear receptor subfamily 0, group B, member 1 (DAX1; NR0B1). [Related pubchem assays (depositor defined):AID504766, AID504790]. The assay is classed as functional.
Assay [7] deals with Mu-type opioid receptor (Homo sapiens, UniProt P35372). Nature of the assay: Counterscreen for agonists of heterodimerization of the mu 1 (OPRM1) and delta 1 (OPRD1) opioid receptors: Luminescence-based cell-based high throughput dose response assay to identify agonists of OPRM1 homodimerization. Format: functional.
The target in assay [8] is Delta-type opioid receptor (Homo sapiens, UniProt P41143). Nature of the assay: Counterscreen for agonists of heterodimerization of the mu 1 (OPRM1) and delta 1 (OPRD1) opioid receptors: Luminescence-based cell-based high throughput dose response assay to identify agonists of OPRD1 homodimerization. [Related pubchem assays (depositor defined):AID504326, AID504355, AID504692, AID504904, AID504905]. Format: functional. A general note: A counterscreen serves to expose hits that act by an unwanted route or on another target.

Assay [9] is described as follows: growth suppression of PTEN-null colon cells, dose response, cell-based, HCT116 PTEN knockout (AID 1047).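 Note: HCT116 colon tumor cells with PTEN knocked out; cells exposed to compound for 60 hours before readout; potency for loss of cell viability measured by luminescence.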 Format: functional.
In assay [10] the test system is INS1. Nature of the assay: beta cell apoptosis inhibitors, cytokine rescue, dose response, luminescence, retest (AID 449756).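 Note: cell death triggered by IL-1 beta plus TNF-alpha plus IFN-gamma mixture; protective hits raise ATP signal compared with cytokine alone wells.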 Format: functional, cell-based. Conditions: Rattus norvegicus.
The target of assay [11] is 5-hydroxytryptamine receptor 5A (Homo sapiens, UniProt P47898). Nature of the assay: Counterscreen for agonists of OPRM1-OPRD1 heterodimerization: luminescence-based cell-based high throughput dose response assay to identify agonists of 5-hydroxytryptamine (serotonin) 5A receptor (HTR5A). [Related pubchem assays (depositor defined):AID504326, AID504355, AID504692, AID504904, AID504905]. Format: functional.

The nature of assay [12]: cells. The assay is classed as functional.
Assay [13] in a line: Vero E6 cell cytotoxicity, dose response, cytotoxicity control for non-replicating M. tuberculosis project, secondary assay (AID 492998). Format: functional, VeroE6. The note with it: Vero C1008.
The target in assay [14] is T1, Mannose-6-phosphate isomerase (Homo sapiens, UniProt P34949).
T1 sequence (P34949 whole entry): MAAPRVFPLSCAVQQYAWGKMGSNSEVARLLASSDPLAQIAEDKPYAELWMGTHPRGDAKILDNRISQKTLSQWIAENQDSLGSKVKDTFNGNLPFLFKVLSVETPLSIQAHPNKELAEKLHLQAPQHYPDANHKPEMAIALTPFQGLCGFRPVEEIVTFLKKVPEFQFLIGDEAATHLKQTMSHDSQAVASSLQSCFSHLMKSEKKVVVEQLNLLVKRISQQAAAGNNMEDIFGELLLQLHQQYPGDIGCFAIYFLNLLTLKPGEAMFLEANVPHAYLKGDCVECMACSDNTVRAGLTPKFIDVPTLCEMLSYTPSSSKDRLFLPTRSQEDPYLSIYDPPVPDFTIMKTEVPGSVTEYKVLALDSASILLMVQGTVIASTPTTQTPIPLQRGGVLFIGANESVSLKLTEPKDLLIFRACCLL
Nature of the assay: human PMI inhibitors, high substrate, primary screen, biochemical, fluorescence intensity, high mannose 6-phosphate (AID 1220).

Assay [15] addresses Sphingosine 1-phosphate receptor 2 (Homo sapiens, UniProt O95136). Nature of the assay: Dose Response Cell Based Assay for Antagonists of the S1P2 Receptor. [Related pubchem assays: 856, 736 ]. Format: functional.
Assay [16] in a line: THP-1 cell cytotoxicity, dose response, cytotoxicity control for non-replicating M. tuberculosis project (AID 489025). Format: functional.
Assay [17] has as its target Heat shock protein HSP 90-alpha (Homo sapiens, UniProt P07900). The assay is classed as functional, organism-based.
Assay [18] in a line: growth suppression of beta-catenin-knockout colon cells, dose response, cell-based, HCT116, human colon tumor (AID 1045).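 Note: HCT116 colon tumor cells with beta catenin knocked out; cells exposed to compound for 60 hours.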 Format: functional.
In assay [19] the target is T2, High affinity choline transporter 1 (Homo sapiens, UniProt Q9GZV3).
T2 sequence (Q9GZV3 whole entry): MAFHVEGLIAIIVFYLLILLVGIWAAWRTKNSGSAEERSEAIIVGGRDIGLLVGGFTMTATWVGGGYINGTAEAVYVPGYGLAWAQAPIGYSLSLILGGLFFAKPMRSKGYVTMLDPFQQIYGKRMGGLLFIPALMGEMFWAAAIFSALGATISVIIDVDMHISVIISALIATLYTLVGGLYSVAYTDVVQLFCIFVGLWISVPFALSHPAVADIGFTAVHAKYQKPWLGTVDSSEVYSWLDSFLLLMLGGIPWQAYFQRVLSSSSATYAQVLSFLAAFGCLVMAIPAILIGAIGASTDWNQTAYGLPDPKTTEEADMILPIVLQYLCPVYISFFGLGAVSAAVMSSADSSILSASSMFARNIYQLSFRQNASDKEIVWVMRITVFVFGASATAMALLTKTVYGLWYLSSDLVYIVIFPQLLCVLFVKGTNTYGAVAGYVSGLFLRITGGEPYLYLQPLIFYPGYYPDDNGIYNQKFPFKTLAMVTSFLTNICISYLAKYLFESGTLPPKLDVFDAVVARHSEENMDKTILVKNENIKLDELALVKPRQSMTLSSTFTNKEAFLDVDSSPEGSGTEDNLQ
Nature of the assay: CHT inhibitors, dose response, cell-based, 5-point CRC, membrane potential dye (AID 504840). Format: functional.

Assay [20] deals with Induced myeloid leukemia cell differentiation protein Mcl-1 (Homo sapiens, UniProt Q07820). The assay is classed as functional.
For assay [21], the target named is UDP-galactopyranose mutase (Mycobacterium tuberculosis, UniProt P9WIQ1). Nature of the assay: Inhibitors of Mycobacterium tuberculosis UDP-galactopyranose mutase (UGM) enzyme Measured in Biochemical System Using Plate Reader - 2105-02_Inhibitor_Dose_CherryPick_Activity. [Related pubchem assays (depositor defined):AID504439].
Assay [22] concerns the target Eukaryotic translation initiation factor 4E (Mus musculus, UniProt P63073). Nature of the assay: eIF4E–eIF4G protein interaction inhibitors, dose response, biochemical, TR-FRET (AID 855).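 Note: potency for disrupting eIF4E binding to eIF4GI seen as loss of FRET.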 Format: functional. For orientation: TR-FRET usually uses a lanthanide donor and a delayed reading to cut background.
In assay [23] the target is Glucose-6-phosphate 1-dehydrogenase (Homo sapiens, UniProt P11413). Nature of the assay: human G6PD enzyme inhibitors, dose response, selectivity assay for P. falciparum G6PD inhibitor project, biochemical, fluorescence (AID 504792). The assay is classed as functional.
The nature of assay [24]: THP-1 cell cytotoxicity, dose response, cytotoxicity control for Vif-APOBEC3G degradation inhibitor project, THP-1 cells (AID 1117359). The assay is classed as functional. Conditions: Human immunodeficiency virus 1, THP-1.
In assay [25] the target is T3, Long-chain-fatty-acid--AMP ligase FadD28 (Mycobacterium tuberculosis, UniProt P9WQ59).
T3 sequence (P9WQ59 whole entry): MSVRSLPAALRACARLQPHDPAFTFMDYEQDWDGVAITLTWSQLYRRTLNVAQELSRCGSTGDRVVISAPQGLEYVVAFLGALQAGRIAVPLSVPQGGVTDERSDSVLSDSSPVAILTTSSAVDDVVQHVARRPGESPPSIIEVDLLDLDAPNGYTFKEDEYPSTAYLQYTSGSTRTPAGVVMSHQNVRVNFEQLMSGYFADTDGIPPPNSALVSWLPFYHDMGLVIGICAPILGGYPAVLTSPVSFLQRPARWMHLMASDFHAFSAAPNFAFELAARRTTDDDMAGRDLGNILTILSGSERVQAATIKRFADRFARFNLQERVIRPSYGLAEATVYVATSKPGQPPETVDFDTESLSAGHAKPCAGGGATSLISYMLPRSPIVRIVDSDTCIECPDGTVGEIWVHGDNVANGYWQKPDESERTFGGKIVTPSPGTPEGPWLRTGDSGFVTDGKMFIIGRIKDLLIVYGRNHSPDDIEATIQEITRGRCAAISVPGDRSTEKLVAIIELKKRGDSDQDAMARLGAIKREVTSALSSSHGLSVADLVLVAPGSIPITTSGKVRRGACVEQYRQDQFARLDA
Nature of the assay: Fluorescence polarization aasay to screen for inhibitors that compete for the binding of FadD28 to a bisubstrate Measured in Biochemical System Using Plate Reader - 2147-01_Inhibitor_Dose_CherryPick_Activity. Format: functional, Mycobacterium tuberculosis H37Rv. On the technique in general: Polarisation of emitted light reports the rotation of a fluorescent probe.

In assay [26] the target is Glyceraldehyde-3-phosphate dehydrogenase (Homo sapiens, UniProt P04406).
Assay [27] addresses T4, Dual specificity protein phosphatase 6 (Rattus norvegicus, UniProt Q64346).
T4 sequence (Q64346 whole entry): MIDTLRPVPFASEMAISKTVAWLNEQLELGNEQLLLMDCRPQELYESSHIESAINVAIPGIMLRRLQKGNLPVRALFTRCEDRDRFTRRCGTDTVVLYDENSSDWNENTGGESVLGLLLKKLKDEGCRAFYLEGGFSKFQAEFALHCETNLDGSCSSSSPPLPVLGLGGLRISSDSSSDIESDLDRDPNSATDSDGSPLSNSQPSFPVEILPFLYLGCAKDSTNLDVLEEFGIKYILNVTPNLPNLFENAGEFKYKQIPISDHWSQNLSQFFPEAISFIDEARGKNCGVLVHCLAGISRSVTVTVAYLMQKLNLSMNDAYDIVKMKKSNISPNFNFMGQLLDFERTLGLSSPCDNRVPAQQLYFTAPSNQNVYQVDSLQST
The assay is classed as functional.

Assay [28] concerns the target T5, Tyrosine-protein phosphatase non-receptor type 7 (Homo sapiens, UniProt P35236).
T5 sequence (P35236 whole entry): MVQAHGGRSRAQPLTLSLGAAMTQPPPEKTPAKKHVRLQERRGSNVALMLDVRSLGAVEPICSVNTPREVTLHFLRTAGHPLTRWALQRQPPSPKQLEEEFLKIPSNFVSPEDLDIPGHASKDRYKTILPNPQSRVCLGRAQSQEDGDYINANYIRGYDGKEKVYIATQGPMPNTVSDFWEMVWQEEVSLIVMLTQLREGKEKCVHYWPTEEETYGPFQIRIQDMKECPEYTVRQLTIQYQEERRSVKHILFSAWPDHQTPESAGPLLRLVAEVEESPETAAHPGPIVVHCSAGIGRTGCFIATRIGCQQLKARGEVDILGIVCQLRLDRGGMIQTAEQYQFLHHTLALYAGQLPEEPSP
Format: functional.

Assay [29] addresses T4, Dual specificity protein phosphatase 6.
The target in assay [30] is Voltage-gated inwardly rectifying potassium channel KCNH2 (Homo sapiens, UniProt Q12809). Conditions: Potency.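 Note: confirmatory quantitative high-throughput screen measuring inhibition of hERG channel activity.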

The structures appear in SMILES notation. Active and inactive are the calls of the source.

By EC50 is commonly meant the concentration that produces a half-maximal response. Broadly, the IC50 is the concentration that inhibits the measured activity by half. By AC50 is commonly meant the midpoint of the concentration-response curve, whichever way the signal moves. For orientation: CC50 means the concentration giving 50% cytotoxicity.

Sequence of Eukaryotic translation initiation factor 4E (P63073 whole entry): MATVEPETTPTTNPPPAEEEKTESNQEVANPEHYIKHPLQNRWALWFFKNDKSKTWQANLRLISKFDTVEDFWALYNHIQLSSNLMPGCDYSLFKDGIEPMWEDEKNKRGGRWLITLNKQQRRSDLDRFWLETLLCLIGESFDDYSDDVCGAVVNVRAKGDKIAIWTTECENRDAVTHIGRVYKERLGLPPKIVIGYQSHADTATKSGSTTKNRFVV
Sequence of Voltage-gated inwardly rectifying potassium channel KCNH2 (Q12809 whole entry): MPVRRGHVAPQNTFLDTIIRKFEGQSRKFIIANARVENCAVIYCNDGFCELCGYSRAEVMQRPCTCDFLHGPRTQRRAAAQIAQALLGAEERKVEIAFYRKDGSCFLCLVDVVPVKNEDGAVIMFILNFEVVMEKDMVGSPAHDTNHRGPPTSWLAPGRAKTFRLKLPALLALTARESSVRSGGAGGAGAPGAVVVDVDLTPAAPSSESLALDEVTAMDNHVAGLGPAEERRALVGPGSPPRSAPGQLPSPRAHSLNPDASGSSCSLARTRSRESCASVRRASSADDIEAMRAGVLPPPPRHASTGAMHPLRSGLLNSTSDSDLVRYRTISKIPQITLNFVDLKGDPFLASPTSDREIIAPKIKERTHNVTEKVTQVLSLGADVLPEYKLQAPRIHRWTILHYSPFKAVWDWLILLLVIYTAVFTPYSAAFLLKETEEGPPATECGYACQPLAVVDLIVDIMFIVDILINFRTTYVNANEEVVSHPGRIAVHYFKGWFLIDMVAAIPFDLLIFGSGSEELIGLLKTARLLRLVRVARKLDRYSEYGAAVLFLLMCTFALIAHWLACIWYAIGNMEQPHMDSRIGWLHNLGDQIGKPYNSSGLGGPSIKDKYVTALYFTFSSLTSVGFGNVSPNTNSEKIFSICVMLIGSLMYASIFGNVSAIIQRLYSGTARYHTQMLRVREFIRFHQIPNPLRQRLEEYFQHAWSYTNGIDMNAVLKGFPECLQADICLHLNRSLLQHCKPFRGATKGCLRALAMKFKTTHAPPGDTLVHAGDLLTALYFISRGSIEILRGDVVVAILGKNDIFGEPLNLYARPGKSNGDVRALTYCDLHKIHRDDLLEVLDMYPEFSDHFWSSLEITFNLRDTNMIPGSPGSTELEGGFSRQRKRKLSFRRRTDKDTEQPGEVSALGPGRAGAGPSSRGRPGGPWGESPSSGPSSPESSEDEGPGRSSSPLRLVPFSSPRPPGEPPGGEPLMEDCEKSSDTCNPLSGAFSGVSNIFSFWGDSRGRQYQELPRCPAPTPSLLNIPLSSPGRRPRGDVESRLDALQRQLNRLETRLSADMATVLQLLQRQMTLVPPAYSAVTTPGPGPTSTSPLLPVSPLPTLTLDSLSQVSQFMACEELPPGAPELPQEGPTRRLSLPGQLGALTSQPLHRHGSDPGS
Sequence of Sphingosine 1-phosphate receptor 2 (O95136 whole entry): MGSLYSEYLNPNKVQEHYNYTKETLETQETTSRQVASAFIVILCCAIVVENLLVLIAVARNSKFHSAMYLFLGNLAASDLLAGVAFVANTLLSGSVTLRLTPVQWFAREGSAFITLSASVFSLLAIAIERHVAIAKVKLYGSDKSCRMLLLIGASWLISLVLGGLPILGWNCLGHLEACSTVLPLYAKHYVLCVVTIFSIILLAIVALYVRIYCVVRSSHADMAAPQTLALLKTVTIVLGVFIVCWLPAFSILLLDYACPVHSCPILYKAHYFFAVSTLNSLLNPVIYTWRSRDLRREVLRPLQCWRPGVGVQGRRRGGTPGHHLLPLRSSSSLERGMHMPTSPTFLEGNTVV
Sequence of Glucose-6-phosphate 1-dehydrogenase (P11413 whole entry): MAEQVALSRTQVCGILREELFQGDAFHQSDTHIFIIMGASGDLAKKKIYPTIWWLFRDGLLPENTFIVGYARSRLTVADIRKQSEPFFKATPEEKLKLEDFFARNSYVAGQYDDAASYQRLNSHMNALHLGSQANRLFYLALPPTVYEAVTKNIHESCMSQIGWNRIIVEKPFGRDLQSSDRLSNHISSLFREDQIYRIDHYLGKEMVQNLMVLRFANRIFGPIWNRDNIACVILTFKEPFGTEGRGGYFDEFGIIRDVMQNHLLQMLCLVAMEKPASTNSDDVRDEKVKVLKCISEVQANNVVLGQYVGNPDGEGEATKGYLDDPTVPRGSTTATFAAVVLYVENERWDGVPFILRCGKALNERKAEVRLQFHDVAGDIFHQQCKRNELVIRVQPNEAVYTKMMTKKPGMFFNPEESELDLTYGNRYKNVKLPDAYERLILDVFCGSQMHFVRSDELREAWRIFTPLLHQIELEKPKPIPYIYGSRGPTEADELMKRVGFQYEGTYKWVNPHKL
Sequence of UDP-galactopyranose mutase (P9WIQ1 whole entry): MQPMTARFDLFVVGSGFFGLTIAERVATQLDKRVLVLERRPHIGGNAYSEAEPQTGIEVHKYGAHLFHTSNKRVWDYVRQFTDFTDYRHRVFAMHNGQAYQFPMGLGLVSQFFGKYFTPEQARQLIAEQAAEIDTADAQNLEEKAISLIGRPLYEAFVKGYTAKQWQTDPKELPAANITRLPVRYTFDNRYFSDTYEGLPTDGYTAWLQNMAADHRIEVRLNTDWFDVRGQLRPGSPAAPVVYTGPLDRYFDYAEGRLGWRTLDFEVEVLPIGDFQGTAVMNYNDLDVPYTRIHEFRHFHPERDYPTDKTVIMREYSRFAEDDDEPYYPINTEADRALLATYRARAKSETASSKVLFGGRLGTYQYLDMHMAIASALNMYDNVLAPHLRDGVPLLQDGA
Sequence of Mu-type opioid receptor (P35372 whole entry): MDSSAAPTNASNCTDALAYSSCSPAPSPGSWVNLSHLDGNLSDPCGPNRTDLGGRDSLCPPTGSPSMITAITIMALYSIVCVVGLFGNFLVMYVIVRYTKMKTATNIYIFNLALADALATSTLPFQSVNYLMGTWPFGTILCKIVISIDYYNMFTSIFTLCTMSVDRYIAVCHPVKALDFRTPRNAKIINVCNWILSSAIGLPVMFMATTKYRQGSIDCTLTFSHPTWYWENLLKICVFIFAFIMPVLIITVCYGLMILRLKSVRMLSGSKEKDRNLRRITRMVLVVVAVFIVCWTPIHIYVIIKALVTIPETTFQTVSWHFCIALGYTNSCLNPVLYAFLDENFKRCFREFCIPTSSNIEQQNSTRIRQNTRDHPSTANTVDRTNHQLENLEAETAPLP
Sequence of Delta-type opioid receptor (P41143 whole entry): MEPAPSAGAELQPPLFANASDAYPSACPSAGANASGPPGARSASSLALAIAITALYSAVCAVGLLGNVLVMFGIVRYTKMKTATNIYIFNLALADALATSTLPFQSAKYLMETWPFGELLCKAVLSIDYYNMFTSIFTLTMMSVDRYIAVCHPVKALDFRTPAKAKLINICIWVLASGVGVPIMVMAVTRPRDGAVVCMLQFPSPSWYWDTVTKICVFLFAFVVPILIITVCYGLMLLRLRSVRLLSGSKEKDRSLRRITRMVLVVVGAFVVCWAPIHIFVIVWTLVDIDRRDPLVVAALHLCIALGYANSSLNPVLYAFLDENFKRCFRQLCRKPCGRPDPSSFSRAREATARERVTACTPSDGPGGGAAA
Sequence of Glyceraldehyde-3-phosphate dehydrogenase (P04406 whole entry): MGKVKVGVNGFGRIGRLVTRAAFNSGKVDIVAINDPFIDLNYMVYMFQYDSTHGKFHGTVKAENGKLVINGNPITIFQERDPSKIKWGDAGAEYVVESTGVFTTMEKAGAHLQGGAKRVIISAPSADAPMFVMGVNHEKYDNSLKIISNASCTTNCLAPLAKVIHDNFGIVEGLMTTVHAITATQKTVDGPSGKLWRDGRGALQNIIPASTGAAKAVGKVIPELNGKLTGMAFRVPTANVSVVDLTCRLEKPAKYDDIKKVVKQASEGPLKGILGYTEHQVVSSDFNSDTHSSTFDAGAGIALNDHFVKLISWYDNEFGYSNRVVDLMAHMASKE
Sequence of 5-hydroxytryptamine receptor 5A (P47898 whole entry): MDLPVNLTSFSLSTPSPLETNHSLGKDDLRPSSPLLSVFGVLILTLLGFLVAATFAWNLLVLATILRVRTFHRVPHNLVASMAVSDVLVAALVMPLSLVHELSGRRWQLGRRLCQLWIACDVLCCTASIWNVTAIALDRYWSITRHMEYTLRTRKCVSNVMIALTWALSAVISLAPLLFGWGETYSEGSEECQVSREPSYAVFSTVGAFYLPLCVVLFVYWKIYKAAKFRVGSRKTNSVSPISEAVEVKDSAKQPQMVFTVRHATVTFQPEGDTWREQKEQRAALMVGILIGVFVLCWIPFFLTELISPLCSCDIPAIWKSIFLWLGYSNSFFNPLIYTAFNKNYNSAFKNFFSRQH
Sequence of Induced myeloid leukemia cell differentiation protein Mcl-1 (Q07820 whole entry): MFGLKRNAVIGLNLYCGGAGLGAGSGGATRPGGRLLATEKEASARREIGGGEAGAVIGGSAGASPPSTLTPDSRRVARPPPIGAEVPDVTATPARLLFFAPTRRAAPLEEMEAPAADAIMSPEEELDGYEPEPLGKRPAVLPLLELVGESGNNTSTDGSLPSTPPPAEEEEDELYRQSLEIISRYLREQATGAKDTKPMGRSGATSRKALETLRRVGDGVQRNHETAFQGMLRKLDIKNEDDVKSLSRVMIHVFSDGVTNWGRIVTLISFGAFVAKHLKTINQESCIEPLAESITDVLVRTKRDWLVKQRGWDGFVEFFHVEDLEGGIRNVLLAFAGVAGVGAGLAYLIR
Sequence of Nuclear receptor subfamily 0 group B member 1 (P51843 whole entry): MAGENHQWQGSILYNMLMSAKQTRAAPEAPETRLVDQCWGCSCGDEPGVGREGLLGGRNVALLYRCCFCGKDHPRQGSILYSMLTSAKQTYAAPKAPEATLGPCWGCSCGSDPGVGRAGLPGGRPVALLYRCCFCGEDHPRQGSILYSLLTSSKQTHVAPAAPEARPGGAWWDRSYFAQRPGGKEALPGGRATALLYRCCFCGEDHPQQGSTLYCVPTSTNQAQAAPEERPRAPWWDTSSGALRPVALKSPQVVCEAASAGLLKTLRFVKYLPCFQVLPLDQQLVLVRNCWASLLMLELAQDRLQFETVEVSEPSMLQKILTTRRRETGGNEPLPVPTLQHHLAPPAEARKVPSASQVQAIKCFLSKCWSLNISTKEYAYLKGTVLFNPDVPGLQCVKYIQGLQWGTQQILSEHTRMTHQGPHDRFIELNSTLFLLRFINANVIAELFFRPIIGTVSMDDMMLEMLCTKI

As to `CCCCC(=O)Nc1cccc(NC(=O)c2ccccc2Br)c1`, the EC50 was 6.9 µM (active) in assay [1], > 112 µM (not active) in assay [2], 500 µM (inactive) in [3] and < 3 µM (active) in [4].
Regarding `COc1ccc(-c2csc(Nc3cccc(C)n3)n2)cc1`, the IC50 in assay [5] and in [6] was > 67.5 µM (inactive) each time.
Take `CC1=C/C(=N\OS(=O)(=O)c2ccccc2)C(C)=CC1=O`: the EC50 is > 92.5 µM (inactive) in assay [7]; > 92.5 µM (inactive) in assay [8]; 14.5 µM (active) in assay [9]; > 92.5 µM (inactive) in assay [11]; 16.4 µM (active) in assay [18]. Moreover, the concentration at half-maximal activity (AC50) in assay [10] is 1.17 µM (active); in assay [17], 0.554 µM (active). The concentration for half-maximal inhibition (IC50) in [12] was 3.09 µM (active); in assay [14] it was 3.73 µM (active); in [15], 3.71 µM (active); in assay [19], 12.3 µM (active). Also, the CC50 in assay [13] is 15.6 µM (active); in assay [16], 12 µM (active).
As for `COc1cc(/C=C2\CC/C(=C\c3cc(OC)c(O)c(OC)c3)C2=O)cc(OC)c1O`, the IC50 in assay [20] is 5.75 µM (active); in assay [14] it was 24.7 µM (active); in assay [22], > 64 µM (inactive); in assay [23], > 80 µM (inactive). The values for the AC50 in assay [10], in assay [21] and in assay [25] were 4.41 µM (active), 8.22 µM (active) and 86.6 µM (active), respectively. In [24], the CC50 was 3.3 µM (active).
For `Cc1ccccc1Cn1c(=O)n(-c2ccccc2)c(=O)n([C@H](C(=O)O)C(C)C)c1=O`, the IC50 is > 100 µM (not active) in assay [26], > 100 µM (inactive) in assay [27], > 100 µM (not active) in assay [28] and > 100 µM (inactive) in assay [29].
For the molecule `CCN(CC)C(=O)N[C@@H]1C[C@@H]2c3cccc4[nH]cc(c34)C[C@H]2N(C)C1`, the AC50 in assay [30] is 25.1 µM (inconclusive).

These data come from ChEMBL document CHEMBL1201862, “PubChem BioAssay data set” (2004).
